Test results from patent publication US20230131899A1, “INHIBITORS OF MICROBIALLY INDUCED AMYLOID” (Axial Therapeutics, Inc., priority 2020, published 2023).
Like-named read-outs stand apart in the source and are kept apart here.

Target: T1, E. coli CsgA (Escherichia coli, UniProt P28307)
T1 construct: made in house; host or cells: E. coli NEB 3016 slyD::kan, pET11d
Experiment: In vitro ThioflavinT assay of CsgA aggregation (CsgA ThT Assay)
Format: biochemical
How it was run: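 Purified C-terminal His-tagged CsgA, monomerised by desalting and 30-kDa filtration, at 2-20 μM with 20-40 μM ThT in 50 mM potassium phosphate pH 7.3, 1% DMSO, compounds 3.125-200 uM; room temperature, fluorescence (ex 438/em 495 nm) read every 15 min. Background-subtracted signal expressed as percent inhibition versus vehicle at 6-6.5 or 8-9 h, or as percent control AUC.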

[1] = read-out: CsgA ThT Assay (2 μM CsgA) % Control Bmax 25 μM, activity range, class symbol, CsgA 2 μM, white plates, compound 25 μM
[2] = read-out: CsgA ThT Assay (2 μM CsgA) % Control Bmax 25 μM, mean Bmax as percentage of DMSO control, CsgA 2 μM, white plates, compound 25 μM
[3] = read-out: CsgA ThT Assay (2 μM CsgA) % Control Bmax 100 μM, activity range, class symbol, CsgA 2 μM, white plates, compound 100 μM
[4] = read-out: CsgA ThT Assay (2 μM CsgA) % Control Bmax 100 μM, mean Bmax as percentage of DMSO control, CsgA 2 μM, white plates, compound 100 μM
[5] = read-out: CsgA ThT Assay (10 μM CsgA) % Control AUC at 1005 minutes, 25 μM (activity range), CsgA 10 μM, black plates, compound 25 μM, 1005 minutes, class symbol
[6] = read-out: CsgA ThT Assay (10 μM CsgA) % Control AUC at 1005 minutes, 25 μM, mean AUC as % of DMSO control, CsgA 10 μM, black plates, compound 25 μM, 1005 minutes
[7] = read-out: CsgA ThT Assay (10 μM CsgA) % Control AUC at 1005 minutes, 100 μM (activity range), CsgA 10 μM, black plates, compound 100 μM, 1005 minutes, class symbol
[8] = read-out: CsgA ThT Assay (10 μM CsgA) % Control AUC at 1005 minutes, 100 μM, mean AUC as % of DMSO control, CsgA 10 μM, black plates, compound 100 μM, 1005 minutes

T1 sequence (P28307 23-151): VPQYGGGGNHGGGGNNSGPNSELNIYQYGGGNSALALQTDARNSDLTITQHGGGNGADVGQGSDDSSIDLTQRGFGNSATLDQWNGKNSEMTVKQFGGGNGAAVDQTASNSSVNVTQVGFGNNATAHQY

## CC(C)N1CC(C(=O)O)n2c1c(-c1cccc(C(F)(F)F)c1)c(Cc1cccc3ccccc13)c(Cl)c2=O (stereo not drawn) [Compound 179, 6-chloro-1-isopropyl-7-(naphthalen-1-ylmethyl)-5-oxo-8-(3-(trifluoromethyl)phenyl)-1,2,3,5-tetrahydroimidazo[1,2-a]pyridine-3-carboxylic acid]
[1]
  remaining activity at 25 µM: > 60%
[2]
  remaining activity at 25 µM: 65%
[3]
  remaining activity at 100 µM: 31 to 60%
[4]
  remaining activity at 100 µM: 48%

## CCCN1CC(C(=O)O)n2c(c(-c3cccc(C(F)(F)F)c3)c(C(F)(F)c3cccc4ccccc34)cc2=O)S1(=O)=O (stereo not drawn) [Compound 138, 8-(difluoro(naphthalen-1-yl)methyl)-6-oxo-2-propyl-9-(3-(trifluoromethyl)phenyl)-3,4-dihydro-2H,6H-pyrido[1,2-e][1,2,5]thiadiazine-4-carboxylic acid 1,1-dioxide]
[1]
  remaining activity at 25 µM: > 60%
[2]
  remaining activity at 25 µM: 73%
[3]
  remaining activity at 100 µM: 31 to 60%
[4]
  remaining activity at 100 µM: 43%

## CCCN1CC(C(=O)O)n2c(c(-c3cccc(C(F)(F)F)c3)c(Cc3cccc4ccccc34)cc2=O)S1(=O)=O (single isomer, unassigned) [Compound 016b, 8-(naphthalen-1-ylmethyl)-6-oxo-2-propyl-9-(3-(trifluoromethyl)phenyl)-3,4-dihydro-2H,6H-pyrido[1,2-e][1,2,5]thiadiazine-4-carboxylic acid 1,1-dioxide]
CsgA 10 μM, black plates, compound 25 μM, 1005 minutes, class symbol
  CsgA ThT Assay (10 μM CsgA) % Control AUC at 1005 minutes, 25 μM (activity range): (++) (% control AUC of 31 to 60%)
CsgA 10 μM, black plates, compound 100 μM, 1005 minutes, class symbol
  CsgA ThT Assay (10 μM CsgA) % Control AUC at 1005 minutes, 100 μM (activity range): (+++) (% control AUC of 11 to 31%)
Mean AUC as % of DMSO control, CsgA 10 μM, black plates, compound 25 μM, 1005 minutes
  CsgA ThT Assay (10 μM CsgA) % Control AUC at 1005 minutes, 25 μM: 33%
Mean AUC as % of DMSO control, CsgA 10 μM, black plates, compound 100 μM, 1005 minutes
  CsgA ThT Assay (10 μM CsgA) % Control AUC at 1005 minutes, 100 μM: 23%

## CCCN1CC(C(=O)O)n2c(c(-c3cccc(C(F)(F)F)c3)c(Cc3cccc4ccccc34)c(NC(=O)C(C)C)c2=O)S1(=O)=O (stereo not drawn) [Compound 152, 7-isobutyramido-8-(naphthalen-1-ylmethyl)-6-oxo-2-propyl-9-(3-(trifluoromethyl)phenyl)-3,4-dihydro-2H,6H-pyrido[1,2-e][1,2,5]thiadiazine-4-carboxylic acid 1,1-dioxide]
[1]
  remaining activity at 25 µM: > 60%
[2]
  remaining activity at 25 µM: 90%
[3]
  remaining activity at 100 µM: > 60%
[4]
  remaining activity at 100 µM: 107%

## CCNC(=O)c1c(Cc2cccc3ccccc23)c(-c2cccc(C(F)(F)F)c2)c2n(c1=O)C(C(=O)O)CN(C)S2(=O)=O (stereo not drawn) [Compound 156, 7-(ethylcarbamoyl)-2-methyl-8-(naphthalen-1-ylmethyl)-6-oxo-9-(3-(trifluoromethyl)phenyl)-3,4-dihydro-2H,6H-pyrido[1,2-e][1,2,5] thiadiazine-4-carboxylic acid 1,1-dioxide]
[1]
  remaining activity at 25 µM: > 60%
[2]
  remaining activity at 25 µM: 80%
[3]
  remaining activity at 100 µM: > 60%
[4]
  remaining activity at 100 µM: 90%

## O=C(O)C1CN(Cc2ccncc2)c2c(-c3cccc(C(F)(F)F)c3)c(Cc3cccc4ccccc34)c(Cl)c(=O)n21 (stereo not drawn) [Compound 174, 6-chloro-7-(naphthalen-1-ylmethyl)-5-oxo-1-(pyridin-4-ylmethyl)-8-(3-(trifluoromethyl)phenyl)-1,2,3,5-tetrahydroimidazo[1,2-a]pyridine-3-carboxylic acid]
[1]
  remaining activity at 25 µM: > 60%
[2]
  remaining activity at 25 µM: 77%
[3]
  remaining activity at 100 µM: 31 to 60%
[4]
  remaining activity at 100 µM: 60%

## O=C(O)C1CN(C[C@H](O)CO)S(=O)(=O)c2c(-c3cccc(C(F)(F)F)c3)c(Cc3cccc4ccccc34)cc(=O)n21 (stereo partly drawn) [Compound 065a, 2-((S)-2,3-dihydroxypropyl)-8-(naphthalen-1-ylmethyl)-6-oxo-9-(3-(trifluoromethyl)phenyl)-3,4-dihydro-2H,6H-pyrido[1,2-e][1,2,5]thiadiazine-4-carboxylic acid 1,1-dioxide]
[5]
  remaining activity at 25 µM: > 60%
[6]
  remaining activity at 25 µM: 65%
[7]
  remaining activity at 100 µM: 11 to 31%
[8]
  remaining activity at 100 µM: 18%

## O=C(O)C1CN(Cc2ccccc2)c2c(-c3cccc(C(F)(F)F)c3)c(Cc3cccc4ccccc34)cc(=O)n21 (stereo not drawn) [Compound 187, 1-benzyl-7-(naphthalen-1-ylmethyl)-5-oxo-8-(3-(trifluoromethyl)phenyl)-1,2,3,5-tetrahydroimidazo[1,2-a]pyridine-3-carboxylic acid]
[1]
  remaining activity at 25 µM: > 60%
[2]
  remaining activity at 25 µM: 69%
[3]
  remaining activity at 100 µM: > 60%
[4]
  remaining activity at 100 µM: 74%

## Cn1c(=O)c2c(nc(CCCCCN3CC(C(=O)O)n4c(c(-c5cccc(C(F)(F)F)c5)c(Cc5cccc6ccccc56)cc4=O)S3(=O)=O)n2C)n(C)c1=O (stereo not drawn) [Compound 045, 8-(naphthalen-1-ylmethyl)-6-oxo-9-(3-(trifluoromethyl)phenyl)-2-(5-(1,3,7-trimethyl-2,6-dioxo-2,3,6,7-tetrahydro-1H-purin-8-yl)pentyl)-3,4-dihydro-2H,6H-pyrido[1,2-e][1,2,5]thiadiazine-4-carboxylic acid 1,1-dioxide]
[5]
  remaining activity at 25 µM: 31 to 60%
[6]
  remaining activity at 25 µM: 59%
[7]
  remaining activity at 100 µM: 31 to 60%
[8]
  remaining activity at 100 µM: 53%

## CN1CC(C(=O)O)n2c(c(-c3cccc(C(F)(F)F)c3)c(Cc3cccc4ccccc34)c(C(=O)N3CCOCC3)c2=O)S1(=O)=O (stereo not drawn) [Compound 160, 2-methyl-7-(morpholine-4-carbonyl)-8-(naphthalen-1-ylmethyl)-6-oxo-9-(3-(trifluoromethyl)phenyl)-3,4-dihydro-2H,6H-pyrido[1,2-e][1,2,5] thiadiazine-4-carboxylic acid 1,1-dioxide]
[1]
  remaining activity at 25 µM: > 60%
[2]
  remaining activity at 25 µM: 101%
[3]
  remaining activity at 100 µM: > 60%
[4]
  remaining activity at 100 µM: 116%

## Cn1c(=O)c2c(ncn2CCCCN2CC(C(=O)O)n3c(c(-c4cccc(C(F)(F)F)c4)c(Cc4cccc5ccccc45)cc3=O)S2(=O)=O)n(C)c1=O (stereo not drawn) [Compound 033, 2-(4-(1,3-dimethyl-2,6-dioxo-1,2,3,6-tetrahydro-7H-purin-7-yl)butyl)-8-(naphthalen-1-ylmethyl)-6-oxo-9-(3-(trifluoromethyl)phenyl)-3,4-dihydro-2H,6H-pyrido[1,2-e][1,2,5]thiadiazine-4-carboxylic acid 1,1-dioxide]
[5]
  remaining activity at 25 µM: > 60%
[6]
  remaining activity at 25 µM: 68%
[7]
  remaining activity at 100 µM: > 60%
[8]
  remaining activity at 100 µM: 79%

## CCCN1CC(C(=O)O)n2c(c(-c3cccc(C(F)(F)F)c3)c(Cc3cccc4ccccc34)c(Cl)c2=O)S1(=O)=O (stereo not drawn) [Compound 142, 7-chloro-8-(naphthalen-1-ylmethyl)-6-oxo-2-propyl-9-(3-(trifluoromethyl)phenyl)-3,4-dihydro-2H,6H-pyrido[1,2-e][1,2,5]thiadiazine-4-carboxylic acid 1,1-dioxide]
[1]
  remaining activity at 25 µM: > 60%
[2]
  remaining activity at 25 µM: 87%
[3]
  remaining activity at 100 µM: > 60%
[4]
  remaining activity at 100 µM: 121%

## O=C(O)C1CN(CCCCCCN2CC(C(=O)O)n3c2c(-c2cccc(C(F)(F)F)c2)c(Cc2cccc4ccccc24)c(Cl)c3=O)c2c(-c3cccc(C(F)(F)F)c3)c(Cc3cccc4ccccc34)c(Cl)c(=O)n21 (stereo not drawn) [Compound 193, 1,1′-(hexane-1,6-diyl)bis(6-chloro-7-(naphthalen-1-ylmethyl)-5-oxo-8-(3-(trifluoromethyl)phenyl)-1,2,3,5-tetrahydroimidazo[1,2-a]pyridine-3-carboxylic acid)]
[1]
  remaining activity at 25 µM: 31 to 60%
[2]
  remaining activity at 25 µM: 53%
[3]
  remaining activity at 100 µM: < 10%
[4]
  remaining activity at 100 µM: 10%

## O=C(O)C1CN(Cc2ccccc2)c2c(-c3cccc(Br)c3)c(Cc3cccc4ccccc34)c(Cl)c(=O)n21 (stereo not drawn) [Compound 198, 1-benzyl-8-(3-bromophenyl)-6-chloro-7-(naphthalen-1-ylmethyl)-5-oxo-1,2,3,5-tetrahydroimidazo[1,2-a]pyridine-3-carboxylic acid]
[1]
  remaining activity at 25 µM: > 60%
[2]
  remaining activity at 25 µM: 61%
[3]
  remaining activity at 100 µM: 31 to 60%
[4]
  remaining activity at 100 µM: 39%

## NC(=O)c1c(Cc2cccc3ccccc23)c(-c2cccc(C(F)(F)F)c2)c2n(c1=O)C(C(=O)O)CN(C1CCCC1)S2(=O)=O (stereo not drawn) [Compound 176, 7-carbamoyl-2-cyclopentyl-8-(naphthalen-1-ylmethyl)-6-oxo-9-(3-(trifluoromethyl)phenyl)-3,4-dihydro-2H,6H-pyrido[1,2-e][1,2,5]thiadiazine-4-carboxylic acid 1,1-dioxide]
[1]
  remaining activity at 25 µM: 11 to 31%
[2]
  remaining activity at 25 µM: 25%
[3]
  remaining activity at 100 µM: 11 to 31%
[4]
  remaining activity at 100 µM: 24%
